These results are taken from patent US11753397B2, “Cereblon binders for the degradation of ikaros” (C4 Therapeutics, Inc., priority 2018, dated 2023).

The test deals with NCIH929.1 cells. The test is described as follows: Cell viability assay (CellTiter-Glo 2.0, ATP quantification). The settings on record: NCIH929.1 cell viability, CellTiter-Glo 2.0, 96 hr incubation, top concentration 1 μM. Type of test: cell-based. An outline of the steps:
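Read-out is CellTiter-Glo 2.0 luminescence (ATP), after 96 h compound exposure at 37 °C, with a day-0 plate giving the CT0 baseline. Duplicate 10-point half-log titration from 1 μM applied to 750 cells/well in RPMI, 10% FBS, 0.05 mM 2-mercaptoethanol.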
Background: Cellular ATP, detected with luciferase, serves as a proxy for viable cell number.
The GI50 is the concentration at which growth is held to half of that of the control. `O=C1CCC(N2C(=O)c3cccc(NCc4cnn(C5CCC(CC6CCCCC6)CC5)c4)c3C2=O)C(=O)N1` (stereo not shown) [Compound 177, 4-(((1-(4-(Cyclohexylmethyl)cyclohexyl)-1H-pyrazol-4-yl)methyl)amino)-2-(2,6-dioxopiperidin-3-yl)isoindoline-1,3-dione] yielded a GI50 of less than 100 nM.
The result for `CN(C(=O)N1CCC(n2cc(CNc3cccc4c3C(=O)N(C3CCC(=O)NC3=O)C4=O)cn2)CC1)C(C)(C)C` (stereo not shown) [Compound 178, N-(tert-Butyl)-4-(4-(((2-(2,6-dioxopiperidin-3-yl)-1,3-dioxoisoindolin-4-yl)amino)methyl)-1H-pyrazol-1-yl)-N-methylpiperidine-1-carboxamide] reads less than 100 nM; that for `CC1(C(=O)N2CCC(n3cc(CNc4cccc5c4C(=O)N(C4CCC(=O)NC4=O)C5=O)c(N)n3)CC2)CCC1` (stereo not shown) [Compound 179, 4-(((3-Amino-1-(1-(1-methylcyclobutane-1-carbonyl)piperidin-4-yl)-1H-pyrazol-4-yl)methyl)amino)-2-(2,6-dioxopiperidin-3-yl)isoindoline-1,3-dione], less than 100 nM.
In the case of `CC(C)Oc1cc(C2CC2)cc(-n2cc(CNc3cccc4c3C(=O)N(C3CCC(=O)NC3=O)C4=O)cn2)c1` (stereo not shown) [Compound 180, 4-{[1-(3-Cyclopropyl-5-isopropoxy-phenyl)-1H-pyrazol-4-ylmethyl]-amino}-2-(2,6-dioxo-piperidin-3-yl)-isoindole-1,3-dione] it was less than 100 nM; in that of `O=C1CCC(N2C(=O)c3cccc(NCc4cnn(C5CN(c6ccccc6)C5)c4)c3C2=O)C(=O)N1` (stereo not shown) [Compound 181, 2-(2,6-Dioxo-piperidin-3-yl)-4-{[1-(1-phenyl-azetidin-3-yl)-1H-pyrazol-4-ylmethyl]-amino}-isoindole-1,3-Dione], less than 100 nM; in that of `CC(C)(C)OC(=O)CN1CC(n2cc(CNc3cccc4c3C(=O)N(C3CCC(=O)NC3=O)C4=O)cn2)C1` (stereo not shown) [Compound 184, tert-butyl 2-(3-(4-(((2-(2,6-Dioxopiperidin-3-yl)-1,3-dioxoisoindolin-4-yl)amino)methyl)-1H-pyrazol-1-yl)azetidin-1-yl)acetate], less than 100 nM.
The result for `CN(C)CCC(Nc1cccc2c1C(=O)N(C1CCC(=O)NC1=O)C2=O)c1cnn(C2CCN(C(=O)OC(C)(C)C)CC2)c1` (stereo not shown) [Compound 187, tert-Butyl 4-(4-(3-(dimethylamino)-1-((2-(2,6-dioxopiperidin-3-yl)-1,3-dioxoisoindolin-4-yl)amino)propyl)-1H-pyrazol-1-yl)piperidine-1-carboxylate] reads more than 100 nM; that for `CC1(C(=O)N2CCC(n3ncc(CNc4cccc5c4C(=O)N(C4CCC(=O)NC4=O)C5=O)c3Br)CC2)CCC1` (stereo not shown) [Compound 188, 4-(((5-Bromo-1-(1-(1-methylcyclobutane-1-carbonyl)piperidin-4-yl)-1H-pyrazol-4-yl)methyl)amino)-2-(2,6-dioxopiperidin-3-yl)isoindoline-1,3-dione], less than 100 nM.
Compound `CC(C)(C)OC(=O)N1CCC(n2ncc(CNc3cccc4c3C(=O)N(C3CCC(=O)NC3=O)C4=O)c2CC(=O)C2CC2)CC1` (stereo not shown) [Compound 189, tert-Butyl 4-[5-(2-cyclopropyl-2-oxo-ethyl)-4-[[[2-(2,6-dioxo-3-piperidyl)-1,3-dioxo-isoindolin-4-yl]amino]methyl]pyrazol-1-yl]piperidine-1-carboxylate] returned a GI50 of less than 100 nM.
In the case of `CC1(C(=O)N2CCC(n3ncc(CNc4cccc5c4C(=O)N(C4CCC(=O)NC4=O)C5=O)c3C#CC3CC3)CC2)CCC1` (stereo not shown) [Compound 190, 4-(((5-(Cyclopropylethynyl)-1-(1-(1-methylcyclobutane-1-carbonyl)piperidin-4-yl)-1H-pyrazol-4-yl)methyl)amino)-2-(2,6-dioxopiperidin-3-yl)isoindoline-1,3-dione] it was less than 100 nM; in that of `CC1(C(=O)N2CCC(n3cc(CNc4cccc5c4C(=O)N(C4CCC(=O)NC4=O)C5=O)c(Cl)n3)CC2)CCC1` (stereo not shown) [Compound 191, 4-[[3-chloro-1-[1-(1-methylcyclobutanecarbonyl)-4-piperidyl]pyrazol-4-yl]methylamino]-2-(2,6-dioxo-3-piperidyl)isoindoline-1,3-dione], less than 1 nM; in that of `C#Cc1c(CNc2cccc3c2C(=O)N(C2CCC(=O)NC2=O)C3=O)cnn1C1CCN(C(=O)C2(C)CCC2)CC1` (stereo not shown) [Compound 192, 2-(2,6-Dioxopiperidin-3-yl)-4-(((5-ethynyl-1-(1-(1-methylcyclobutane-1-carbonyl)piperidin-4-yl)-1H-pyrazol-4-yl)methyl)amino)isoindoline-1,3-dione], less than 100 nM.
The result for `CC1(C(=O)N2CCC(n3ncc(CNc4cccc5c4C(=O)N(C4CCC(=O)NC4=O)C5=O)c3C#N)CC2)CCC1` (stereo not shown) [Compound 194, 4-(((2-(2,6-Dioxopiperidin-3-yl)-1,3-dioxoisoindolin-4-yl)amino)methyl)-1-(1-(1-methylcyclobutane-1-carbonyl)piperidin-4-yl)-1H-pyrazole-5-carbonitrile] reads less than 100 nM; that for `CC1(C)C[C@H](n2cc(CNc3cccc4c3C(=O)N(C3CCC(=O)NC3=O)C4=O)cn2)CCN1C(=O)C12C3C4C5C3C1C5C42` (stereo partly drawn) [Compound 196, 4-[[1-[(4R)-1-(Cubane-1-carbonyl)-2,2-dimethyl-4-piperidyl]pyrazol-4-yl]methylamino]-2-(2,6-dioxo-3-piperidyl)isoindoline-1,3-dione], less than 1 nM.
The result for `CC1(C)C[C@@H](n2cc(CNc3cccc4c3C(=O)N(C3CCC(=O)NC3=O)C4=O)cn2)CCN1C(=O)C12C3C4C5C3C1C5C42` (stereo partly drawn) [Compound 197, 4-[[1-[(4S)-1-(Cubane-1-carbonyl)-2,2-dimethyl-4-piperidyl]pyrazol-4-yl]methylamino]-2-(2,6-dioxo-3-piperidyl)isoindoline-1,3-dione] reads less than 100 nM; that for `CC(C)(C)OC(=O)N1CCC(n2cc(C(Nc3cccc4c3C(=O)N(C3CCC(=O)NC3=O)C4=O)c3cn(C4CCN(C(=O)OC(C)(C)C)CC4)nn3)nn2)CC1` (stereo not shown) [Compound 203, tert-Butyl 4-[4-[[1-(1-tert-butoxycarbonyl-4-piperidyl)triazol-4-yl]-[[2-(2,6-dioxo-3-piperidyl)-1,3-dioxo-isoindolin-4-yl]amino]methyl]triazol-1-yl]piperidine-1-carboxylate], more than 100 nM; that for `O=C1CCC(N2C(=O)c3cccc(NCc4cnn(C5CCN(CC6(C#CC7CC7)CCC6)CC5)c4)c3C2=O)C(=O)N1` (stereo not shown) [Compound 204, 4-({1-[1-(1-Cyclopropylethynyl-cyclobutylmethyl)-piperidin-4-yl]-1H-pyrazol-4-ylme-thyl}-amino)-2-(2,6-dioxo-piperidin-3-yl)-isoindole-1,3-dione], less than 100 nM.
For the compound `O=C1CCC(N2C(=O)c3cccc(NCc4cnn(C5CCN(C(=O)C6(C#CC7CC7)CCC6)CC5)c4)c3C2=O)C(=O)N1` (stereo not shown) [Compound 205, 4-({1-[1-(1-Cyclopropylethynyl-cyclobutanecarbonyl)-piperidin-4-yl]-1H-pyrazol-4-yl-methyl}-amino)-2-(2,6-dioxo-piperidin-3-yl)-isoindole-1,3-dione], the GI50 was less than 100 nM.
The result for `CC1(C(=O)N2CCC(n3ncc4c3CCC4Nc3cccc4c3C(=O)N(C3CCC(=O)NC3=O)C4=O)CC2)CCC1` (stereo not shown) [Compound 207, 2-(2,6-Dioxo-piperidin-3-yl)-4-{1-[1-(1-methyl-cyclobutanecarbonyl)-piperidin-4-yl]-1,4,5,6-tetrahydro-cyclopentapyrazol-4-ylamino}-isoindole-1,3-dione] reads less than 100 nM.
